Results reported in patent US20210113501A1, “METHOD OF ADMINISTERING BETA-HYDROXY-BETA-METHYLBUTYRATE (HMB)” (Metabolic Technologies, Inc., priority 2009, published 2021).

Assay: Study 2 hematology
Format: in vivo, human
Details: for Basophils (absolute) % Change / Basophils, % - % Change / Eosinophils (absolute) % Change / Eosinophils, % - % Change / Hematocrit % Change / Hemoglobin % Change / Lymphocytes (absolute) % Change / Lymphocytes, % - % Change / MCH % Change / MCHC % Change / MCV % Change / Monocytes (absolute) % Change / Monocytes, % - % Change / Neutrophils (absolute) % Change / Neutrophils, % - % Change / Platelets % Change / RBC % Change / RDW % Change / WBC % Change: Before to After
Protocol: Study 2 design. Study 2 was conducted similar to study 1 with the following modifications. In study 2, plasma levels of HMB were measured for 1440 min (24 h) and total urine collection was also performed for measurement of urinary HMB excretion during this period. After the 180 min blood sample, the subjects were allowed to leave the laboratory and were instructed to return to the laboratory for additional blood samples at 360, 720, and 1440 min after the ingestion of the supplement. As in study 1, each subject took each of the treatments with at least a one week washout period between treatments. Samples were again stored frozen at −70° C. for analysis of plasma and urinary HMB concentrations. Pre-ingestion, 180 min and 1440 min blood samples were again assayed for the same measurements already for study 1. Subjects were provided with a standardized lunch after the 180 min blood sampling and instructed to eat this at approximately 240 min post ingestion. Following the 720 min blood sample, subjects were instructed to eat a normal evening meal before 10 pm. Subjects reported back to the laboratory the following morning for the fasted 1440 min blood sample. A urine collection container was provided and subjects collected all urine produced during the experimental 24 h experimental period. The urine was stored refrigerated when not being collected. Urine volumes were measured and samples of the total urine collection were taken and stored frozen at −70° C. until analyzed for HMB.
The data were analyzed using a crossover design with Proc GLM in SAS. (45) For the timed sampling of plasma HMB a repeated measures polynomial model was used. The model included subject, order, and treatment main effects and time by treatment interaction where appropriate. For other parameters Proc GLM was also used with subject, order, and treatment main effects and the p values are reported for the treatment main effect. Statistical significance was determined for p<0.05 and a trend was determined for 0.05<p<0.10.

SMILES: CC(C)(O)CC(=O)[O-].CC(C)(O)CC(=O)[O-].[Ca+2] [CaHMB, calcium β-hydroxy-β-methylbutryate, reference compound]
- Basophils (absolute) (After (24 h)): 0.06 ± 0.02 ×10^3/μL
- Basophils, % (After (24 h)): 0.8 ± 0.2%
- Eosinophils (absolute) (After (24 h)): 0.2 ± 0.03 ×10^3/μL
- Eosinophils, % (After (24 h)): 2.6 ± 0.4%
- Hematocrit (After (24 h)): 38.3 ± 1.7%
- Hemoglobin (After (24 h)): 13.3 ± 0.6 g/dL
- Lymphocytes (absolute) (After (24 h)): 2.8 ± 0.3 ×10^3/μL
- Lymphocytes, % (After (24 h)): 42.5 ± 3.5%
- MCH (After (24 h)): 30.7 ± 0.6 pg
- MCHC (After (24 h)): 34.7 ± 0.2 g/dL
- MCV (After (24 h)): 88.5 ± 1.4 fL
- Monocytes (absolute) (After (24 h)): 0.5 ± 0.1 ×10^3/μL
- Monocytes, % (After (24 h)): 8.5 ± 1.5%
- Neutrophils (absolute) (After (24 h)): 3.0 ± 0.2 ×10^3/μL
- Neutrophils, % (After (24 h)): 45.6 ± 3.3%
- Platelets (After (24 h)): 235.9 ± 10.9 ×10^3/μL
- RBC (After (24 h)): 4.3 ± 0.2 ×10^6/µL
- RDW (After (24 h)): 13.4 ± 0.1%
- WBC (After (24 h)): 6.5 ± 0.3 ×10^3/μL
- Basophils (absolute) (Before): 0.06 ± 0.02 ×10^3/μL
- Basophils, % (Before): 0.6 ± 0.2%
- Eosinophils (absolute) (Before): 0.2 ± 0.04 ×10^3/μL
- Eosinophils, % (Before): 2.9 ± 0.5%
- Hematocrit (Before): 38.1 ± 1.8%
- Hemoglobin (Before): 13.2 ± 0.7 g/dL
- Lymphocytes (absolute) (Before): 3.3 ± 0.3 ×10^3/μL
- Lymphocytes, % (Before): 44.8 ± 3.2%
- MCH (Before): 30.6 ± 0.5 pg
- MCHC (Before): 34.7 ± 0.2 g/dL
- MCV (Before): 88.4 ± 1.5 fL
- Monocytes (absolute) (Before): 0.5 ± 0.1 ×10^3/μL
- Monocytes, % (Before): 6.9 ± 0.9%
- Neutrophils (absolute) (Before): 3.3 ± 0.3 ×10^3/μL
- Neutrophils, % (Before): 44.9 ± 3.8%
- Platelets (Before): 228.0 ± 17.6 ×10^3/μL
- RBC (Before): 4.3 ± 0.2 ×10^6/µL
- RDW (Before): 13.4 ± 0.2%
- Basophils (absolute) % Change: 0.0%
- Basophils, % - % Change: 20.0%
- Eosinophils (absolute) % Change: −12.5%
- Eosinophils, % - % Change: −8.7%
- Hematocrit % Change: 0.7%
- Hemoglobin % Change: 0.7%
- Lymphocytes (absolute) % Change: −13.5%
- Lymphocytes, % - % Change: −5.0%
- MCH % Change: 0.2%
- MCHC % Change: 0.0%
- MCV % Change: 0.1%
- Monocytes (absolute) % Change: 5.0%
- Monocytes, % - % Change: 23.6%
- Neutrophils (absolute) % Change: −9.9%
- Neutrophils, % - % Change: 1.7%
- Platelets % Change: 3.5%
- RBC % Change: 0.7%
- RDW % Change: −0.1%
- WBC % Change: −10.5%

SMILES: CC(C)(O)CC(=O)O [HMB-Acid Gel Sublingual, 3-hydroxy-3-methylbutyric acid]
- Basophils (absolute) (After (24 h)): 0.04 ± 0.0 ×10^3/μL
- Basophils, % (After (24 h)): 0.4 ± 0.2%
- Eosinophils (absolute) (After (24 h)): 0.2 ± 0.03 ×10^3/μL
- Eosinophils, % (After (24 h)): 3.3 ± 0.5%
- Hematocrit (After (24 h)): 38.6 ± 1.3%
- Hemoglobin (After (24 h)): 13.2 ± 0.5 g/dL
- Lymphocytes (absolute) (After (24 h)): 3.1 ± 0.3 ×10^3/μL
- Lymphocytes, % (After (24 h)): 45.6 ± 3.4%
- MCH (After (24 h)): 30.5 ± 0.5 pg
- MCHC (After (24 h)): 34.5 ± 0.2 g/dL
- MCV (After (24 h)): 89.3 ± 1.4 fL
- Monocytes (absolute) (After (24 h)): 0.6 ± 0.05 ×10^3/μL
- Monocytes, % (After (24 h)): 8.4 ± 0.9%
- Neutrophils (absolute) (After (24 h)): 2.9 ± 0.3 ×10^3/μL
- Neutrophils, % (After (24 h)): 42.4 ± 3.5%
- Platelets (After (24 h)): 244.3 ± 17.5 ×10^3/μL
- RBC (After (24 h)): 4.3 ± 0.1 ×10^6/µL
- RDW (After (24 h)): 13.4 ± 0.2%
- WBC (After (24 h)): 6.8 ± 0.3 ×10^3/μL
- Basophils (absolute) (Before): 0.06 ± 0.02 ×10^3/μL
- Basophils, % (Before): 0.6 ± 0.2%
- Eosinophils (absolute) (Before): 0.2 ± 0.04 ×10^3/μL
- Eosinophils, % (Before): 2.5 ± 0.5%
- Hematocrit (Before): 37.5 ± 1.4%
- Hemoglobin (Before): 13.2 ± 0.5 g/dL
- Lymphocytes (absolute) (Before): 3.0 ± 0.3 ×10^3/μL
- Lymphocytes, % (Before): 43.1 ± 4.2%
- MCH (Before): 30.4 ± 0.5 pg
- MCHC (Before): 34.5 ± 0.2 g/dL
- MCV (Before): 88.4 ± 1.5 fL
- Monocytes (absolute) (Before): 0.6 ± 0.05 ×10^3/μL
- Monocytes, % (Before): 8.3 ± 1.0%
- Neutrophils (absolute) (Before): 3.3 ± 0.5 ×10^3/μL
- Neutrophils, % (Before): 45.3 ± 5.2%
- Platelets (Before): 233.8 ± 14.2 ×10^3/μL
- RBC (Before): 4.3 ± 0.1 ×10^6/µL
- RDW (Before): 13.3 ± 0.2%
- WBC (Before): 7.1 ± 0.4 ×10^3/μL
- Basophils (absolute) % Change: −40.0%
- Basophils, % - % Change: −40.0%
- Eosinophils (absolute) % Change: 35.7%
- Eosinophils, % - % Change: 30.0%
- Hematocrit % Change: 2.9%
- Hemoglobin % Change: 0.4%
- Lymphocytes (absolute) % Change: 5.0%
- Lymphocytes, % - % Change: 5.8%
- MCH % Change: 0.3%
- MCHC % Change: 0.1%
- MCV % Change: 1.0%
- Monocytes (absolute) % Change: 0.0%
- Monocytes, % - % Change: 1.5%
- Neutrophils (absolute) % Change: −12.1%
- Neutrophils, % - % Change: −6.4%
- Platelets % Change: 4.5%
- RBC % Change: 0.1%
- RDW % Change: 0.7%
- WBC % Change: −3.5%

SMILES: CC(C)(O)CC(=O)O [HMB-Acid Gel Swallow, 3-hydroxy-3-methylbutyric acid]
- Basophils (absolute) (After (24 h)): 0.09 ± 0.03 ×10^3/μL
- Basophils, % (After (24 h)): 0.9 ± 0.3%
- Eosinophils (absolute) (After (24 h)): 0.2 ± 0.04 ×10^3/μL
- Eosinophils, % (After (24 h)): 3.0 ± 0.5%
- Hematocrit (After (24 h)): 38.9 ± 1.1%
- Hemoglobin (After (24 h)): 13.4 ± 0.4 g/dL
- Lymphocytes (absolute) (After (24 h)): 3.1 ± 0.3 ×10^3/μL
- Lymphocytes, % (After (24 h)): 43.3 ± 3.9%
- MCH (After (24 h)): 30.5 ± 0.6 pg
- MCHC (After (24 h)): 34.5 ± 0.2 g/dL
- MCV (After (24 h)): 88.6 ± 1.5 fL
- Monocytes (absolute) (After (24 h)): 0.5 ± 0.04 ×10^3/μL
- Monocytes, % (After (24 h)): 6.9 ± 0.8%
- Neutrophils (absolute) (After (24 h)): 3.3 ± 0.4 ×10^3/μL
- Neutrophils, % (After (24 h)): 46.0 ± 4.4%
- Platelets (After (24 h)): 242.4 ± 12.2 ×10^3/μL
- RBC (After (24 h)): 4.4 ± 0.1 ×10^6/µL
- RDW (After (24 h)): 13.2 ± 0.2%
- WBC (After (24 h)): 7.1 ± 0.3 ×10^3/μL
- Basophils (absolute) (Before): 0.05 ± 0.02 ×10^3/μL
- Basophils, % (Before): 0.5 ± 0.2%
- Eosinophils (absolute) (Before): 0.2 ± 0.03 ×10^3/μL
- Eosinophils, % (Before): 2.8 ± 0.5%
- Hematocrit (Before): 37.4 ± 1.0%
- Hemoglobin (Before): 13.0 ± 0.4 g/dL
- Lymphocytes (absolute) (Before): 2.8 ± 0.2 ×10^3/μL
- Lymphocytes, % (Before): 43.6 ± 2.4%
- MCH (Before): 30.6 ± 0.6 pg
- MCHC (Before): 34.8 ± 0.2 g/dL
- MCV (Before): 88.1 ± 1.5 fL
- Monocytes (absolute) (Before): 0.5 ± 0.1 ×10^3/μL
- Monocytes, % (Before): 7.5 ± 1.1%
- Neutrophils (absolute) (Before): 2.9 ± 0.2 ×10^3/μL
- Neutrophils, % (Before): 45.6 ± 2.7%
- Platelets (Before): 229.0 ± 12.9 ×10^3/μL
- RBC (Before): 4.2 ± 0.1 ×10^6/µL
- RDW (Before): 13.3 ± 0.2%
- WBC (Before): 6.4 ± 0.3 ×10^3/μL
- Basophils (absolute) % Change: 75.0%
- Basophils, % - % Change: 75.0%
- Eosinophils (absolute) % Change: 13.3%
- Eosinophils, % - % Change: 9.1%
- Hematocrit % Change: 4.2%
- Hemoglobin % Change: 3.2%
- Lymphocytes (absolute) % Change: 9.4%
- Lymphocytes, % - % Change: −0.9%
- MCH % Change: −0.3%
- MCHC % Change: −0.8%
- MCV % Change: 0.6%
- Monocytes (absolute) % Change: 2.6%
- Monocytes, % - % Change: −8.3%
- Neutrophils (absolute) % Change: 10.6%
- Neutrophils, % - % Change: 0.8%
- Platelets % Change: 5.8%
- RBC % Change: 3.5%
- RDW % Change: −0.5%
- WBC % Change: 9.7%
